Results reported in the supplement of paper PMC11451515.

Key:
Conditions in all cases: 48 h
NOMO1 [1] = experiment: cell viability relative to DMSO control; higher = less cytotoxic
In short: (§1)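 Library compounds in DMSO were pin-dosed in an 11-point threefold series (47 μM to 0.79 nM) onto leukemia cells in 1536-well plates (5 μl). Plates held 500 cells/well of NOMO1 or SEM or 1000 cells/well of P12-Ichikawa, each adapted for at least four passages in each medium. Luminescence was read with CellTiter-Glo One after 48 h at 37°C. Viability means the per-plate percentage relative to DMSO wells, using cell-free wells as background.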

P12-Ichikawa [2] = experiment: as above
In short: as §1

SEM cells [3] = experiment: as above
In short: as §1

NOMO1 [4] = experiment: AUC of viability dose-response curve (% viability x log10 dose units); higher = less sensitive
In short: (§2)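 Leukemia cells adapted to each medium (500 or 1000 cells/well, 1536-well plates) were exposed to library compounds in DMSO for 48 h at 37°C at 11 threefold doses, 47 μM to 0.79 nM. Luminescence by CellTiter-Glo One was normalised per plate to DMSO and cell-free wells, then fitted with a four-parameter log-logistic curve on log10 dose. Curves above full viability were scaled and quality-control failures removed before area under the curve was integrated by trapezoidal rule.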

P12-Ichikawa [5] = experiment: as above
In short: as §2

SEM cells [6] = experiment: as above
In short: as §2

CN[S+](=O)([O-])CCc1ccc2[nH]cc(C3CCN(C)CC3)c2c1
cell viability [%]
Conditions | NOMO1 [1] | P12-Ichikawa [2] | SEM cells [3]
HPLM + 10% dialyzed FBS, 0.000781 µM | 91.2 | 95.6 | 78.4
HPLM + 10% dialyzed FBS, 0.00234 µM | 95.9 | 98.2 | 74.3
HPLM + 10% dialyzed FBS, 0.00702 µM | 91.3 | 99.7 | 87.2
HPLM + 10% dialyzed FBS, 0.0211 µM | 114 | 99.5 | 98.7
HPLM + 10% dialyzed FBS, 0.0632 µM | 112 | 101 | 97.7
HPLM + 10% dialyzed FBS, 0.19 µM | 107 | 103 | 108
HPLM + 10% dialyzed FBS, 0.569 µM | 106 | 108 | 91.8
HPLM + 10% dialyzed FBS, 1.71 µM | 101 | 102 | 99.7
HPLM + 10% dialyzed FBS, 5.12 µM | 98.6 | 112 | 109
HPLM + 10% dialyzed FBS, 15.4 µM | 108 | 103 | 111
HPLM + 10% dialyzed FBS, 46.1 µM | 107 | 105 | 110
RPMI 5 mM glucose + 10% FBS, 0.000781 µM | 83 | 91.6 | 84
RPMI 5 mM glucose + 10% FBS, 0.00234 µM | 84.2 | 91.6 | 67.4
RPMI 5 mM glucose + 10% FBS, 0.00702 µM | 91.3 | 84.7 | 90.8
RPMI 5 mM glucose + 10% FBS, 0.0211 µM | 86.6 | 96 | 101
RPMI 5 mM glucose + 10% FBS, 0.0632 µM | 99.7 | 101 | 94.1
RPMI 5 mM glucose + 10% FBS, 0.19 µM | 89.5 | 100 | 103
RPMI 5 mM glucose + 10% FBS, 0.569 µM | 87.6 | 101 | 92.5
RPMI 5 mM glucose + 10% FBS, 1.71 µM | 92.7 | 107 | 105
RPMI 5 mM glucose + 10% FBS, 5.12 µM | 102 | 102 | 110
RPMI 5 mM glucose + 10% FBS, 15.4 µM | 87.8 | 98 | 99.7
RPMI 5 mM glucose + 10% FBS, 46.1 µM | 96.4 | 101 | 88.8
RPMI 5 mM glucose + 10% dialyzed FBS, 0.000781 µM | 91.5 | 87.8 | 87
RPMI 5 mM glucose + 10% dialyzed FBS, 0.00234 µM | 83.4 | 94.2 | 75.4
RPMI 5 mM glucose + 10% dialyzed FBS, 0.00702 µM | 90.3 | 96.4 | 99.6
RPMI 5 mM glucose + 10% dialyzed FBS, 0.0211 µM | 95.4 | 94.4 | 86.6
RPMI 5 mM glucose + 10% dialyzed FBS, 0.0632 µM | 93.3 | 99.9 | 93.3
RPMI 5 mM glucose + 10% dialyzed FBS, 0.19 µM | 104 | 99 | 99.4
RPMI 5 mM glucose + 10% dialyzed FBS, 0.569 µM | 105 | 107 | 90.9
RPMI 5 mM glucose + 10% dialyzed FBS, 1.71 µM | 96.2 | 96.3 | 97
RPMI 5 mM glucose + 10% dialyzed FBS, 5.12 µM | 102 | 97.4 | 84.2
RPMI 5 mM glucose + 10% dialyzed FBS, 15.4 µM | 85.3 | 101 | 92.9
RPMI 5 mM glucose + 10% dialyzed FBS, 46.1 µM | 89.3 | 98.9 | 85.5

AUC of viability dose-response curve
Conditions | NOMO1 [4] | P12-Ichikawa [5] | SEM cells [6]
HPLM + 10% dialyzed FBS | 454 | 460 | 428
RPMI 5 mM glucose + 10% FBS | 435 | 460 | 452
RPMI 5 mM glucose + 10% dialyzed FBS | 450 | 466 | 432

CN(C)C[C@@H]1CC[N]2C=C(C3=C2C=CC=C3)C/4=C(/C(=O)NC4=O)C5=C[N](CCO1)C6=C5C=CC=C6
cell viability [%]
Conditions | NOMO1 [1] | P12-Ichikawa [2] | SEM cells [3]
HPLM + 10% dialyzed FBS, 0.000781 µM | 88.8 | 99.6 | 87.6
HPLM + 10% dialyzed FBS, 0.00234 µM | 111 | 98.3 | 56.8
HPLM + 10% dialyzed FBS, 0.00702 µM | 109 | 100 | 105
HPLM + 10% dialyzed FBS, 0.0211 µM | 96.6 | 106 | 110
HPLM + 10% dialyzed FBS, 0.0632 µM | 102 | 105 | 97.5
HPLM + 10% dialyzed FBS, 0.19 µM | 91.4 | 110 | 99.6
HPLM + 10% dialyzed FBS, 0.569 µM | 94 | 107 | 91.2
HPLM + 10% dialyzed FBS, 1.71 µM | 88.7 | 100 | 81.4
HPLM + 10% dialyzed FBS, 5.12 µM | 95.4 | 101 | 79.2
HPLM + 10% dialyzed FBS, 15.4 µM | 85.3 | 97.5 | 56.8
HPLM + 10% dialyzed FBS, 46.1 µM | 27.7 | 30.7 | 2.57
RPMI 5 mM glucose + 10% FBS, 0.000781 µM | 98.3 | 92.9 | 118
RPMI 5 mM glucose + 10% FBS, 0.00234 µM | 85.9 | 94.8 | 59.2
RPMI 5 mM glucose + 10% FBS, 0.00702 µM | 89.3 | 100 | 97.3
RPMI 5 mM glucose + 10% FBS, 0.0211 µM | 87.4 | 98.6 | 97
RPMI 5 mM glucose + 10% FBS, 0.0632 µM | 91.7 | 108 | 99.2
RPMI 5 mM glucose + 10% FBS, 0.19 µM | 92.9 | 104 | 119
RPMI 5 mM glucose + 10% FBS, 0.569 µM | 93 | 95.7 | 105
RPMI 5 mM glucose + 10% FBS, 1.71 µM | 87.5 | 96.2 | 89.1
RPMI 5 mM glucose + 10% FBS, 5.12 µM | 86.1 | 97.6 | 77.7
RPMI 5 mM glucose + 10% FBS, 15.4 µM | 83.5 | 83.4 | 49.6
RPMI 5 mM glucose + 10% FBS, 46.1 µM | 73.3 | 55.3 | 2.71
RPMI 5 mM glucose + 10% dialyzed FBS, 0.000781 µM | 90.6 | 110 | 97.7
RPMI 5 mM glucose + 10% dialyzed FBS, 0.00234 µM | 84.2 | 106 | 47.9
RPMI 5 mM glucose + 10% dialyzed FBS, 0.00702 µM | 99.8 | 108 | 102
RPMI 5 mM glucose + 10% dialyzed FBS, 0.0211 µM | 93.4 | 109 | 105
RPMI 5 mM glucose + 10% dialyzed FBS, 0.0632 µM | 99.6 | 103 | 107
RPMI 5 mM glucose + 10% dialyzed FBS, 0.19 µM | 97.3 | 102 | 105
RPMI 5 mM glucose + 10% dialyzed FBS, 0.569 µM | 92.3 | 114 | 93.7
RPMI 5 mM glucose + 10% dialyzed FBS, 1.71 µM | 85.8 | 117 | 87.2
RPMI 5 mM glucose + 10% dialyzed FBS, 5.12 µM | 83.7 | 105 | 73.2
RPMI 5 mM glucose + 10% dialyzed FBS, 15.4 µM | 77.7 | 93.7 | 51.8
RPMI 5 mM glucose + 10% dialyzed FBS, 46.1 µM | 67.7 | 58.9 | 2.49

AUC of viability dose-response curve
Conditions | NOMO1 [4] | P12-Ichikawa [5] | SEM cells [6]
HPLM + 10% dialyzed FBS | 443 | 458 | 391
RPMI 5 mM glucose + 10% FBS | 423 | 453 | 412
RPMI 5 mM glucose + 10% dialyzed FBS | 425 | 459 | 393
